# Test results as given in patent US20100261753A1, “METHODS FOR PREVENTING AND/OR TREATING DEGENERATIVE DISORDERS OF THE CENTRAL NERVOUS SYSTEM” (AMICUS THERAPEUTICS, INC., priority 2009, published 2010).
# Structures can show the parent of a compound that is named as a salt.
# Tests used:
# [1] = Compound concentration in brain, spleen and plasma samples of the GCase enhancement study; format: in vivo, mice (C57BL/6); settings: male, C57BL/6, mouse, po, nine doses, 24-hour washout
# Description: The ability of orally administered test compounds (the hydrochloride salt form of Compound A and Compound B) to elevate GCase levels as compared to reference compound, IFG-tartrate, was assessed in mice. […] Seven animals were used per dose. The dosing solutions were prepared in water. Compounds were administered over 2 weeks as follows: week 1, Mon-Fri (On), Sat-Sun (Off); week 2, Mon-Thu (On); necropsy on Friday. Thus, a total of 9 doses (dosing solutions prepared fresh every day) were given to each mouse, with a 24-hour washout between the last dose and necropsy.
# Plasma was collected by spinning blood at 2700 g for 10 minutes at 4° C. Liver, spleen, lung, and brain tissues were removed, washed in cold PBS, blotted dry, flash frozen on dry ice, and stored at −80° C. until analysis. GCase levels were measured by homogenizing approximately 50 mg tissue in 500 μl McIlvane (MI) buffer (100 mM sodium citrate, 200 mM sodium phosphate dibasic, 0.25% sodium taurocholate, and 0.1% Triton X-100, pH 5.2) at pH 5.2 for 3-5 seconds on ice with a micro homogenizer. Homogenates were then incubated at room temperature without and with 2.5 mM conduritol-B-epoxide (CBE) for 30 min. Finally, 3.7 mM 4-methylumbeliferryl-β-glucoside (4-MUG) substrate was added and incubated at 37° C. for 60 min. Reactions were stopped by addition of 0.4 M glycine, pH 10.6. Fluorescence was measured on a plate reader for 1 sec/well using 355 nm excitation and 460 nm emission. Total protein was determined in lysates using the MicroBCA kit according to the manufacturer's instructions. A 4-methylumbelliferone (4-MU) standard curve ranging from 1.0 nM to 50 μM was run in parallel for conversion of raw fluorescence data to absolute GCase activity (in the presence and absence of CBE) and expressed as nanomoles of 4-MU released per milligram of protein per hour (nmol/mg protein/hr). GCase levels and protein levels were calculated using Microsoft Excel (Redmond, Wash.) and GraphPad Prism version 4.02.
# GCase = biological target: T1, GCase (Homo sapiens, UniProt P04062); test: GCase activity enhancement (EC50, Emax; Table 2B); format: cell-based
# T1 sequence (P04062 40-536): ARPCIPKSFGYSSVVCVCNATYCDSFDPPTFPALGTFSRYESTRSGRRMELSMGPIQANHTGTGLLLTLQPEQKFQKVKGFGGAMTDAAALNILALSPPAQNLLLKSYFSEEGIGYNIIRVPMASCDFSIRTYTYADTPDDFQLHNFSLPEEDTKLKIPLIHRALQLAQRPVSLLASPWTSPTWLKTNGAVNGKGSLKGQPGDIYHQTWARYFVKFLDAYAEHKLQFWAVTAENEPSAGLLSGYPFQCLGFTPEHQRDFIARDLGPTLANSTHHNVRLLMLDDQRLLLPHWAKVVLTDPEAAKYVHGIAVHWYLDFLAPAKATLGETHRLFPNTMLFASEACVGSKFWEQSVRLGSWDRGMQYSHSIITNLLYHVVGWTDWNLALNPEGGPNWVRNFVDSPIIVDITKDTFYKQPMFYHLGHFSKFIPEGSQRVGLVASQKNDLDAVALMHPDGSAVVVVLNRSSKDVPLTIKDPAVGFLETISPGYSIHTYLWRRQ
compound,measurement,setting,value
"Cl.O[C@@H]1[C@@H](CF)CNC[C@H]1O [Compound A-HCl, (3R,4R,5R)-5-(fluoromethyl)piperidine-3,4-diol hydrochloride]",melting point,,200 to 202 °C
"OC[C@H]1CNC[C@@H](O)[C@@H]1O [IFG, (3R,4R,5R)-5-(hydroxymethyl)-3,4-piperidinediol, reference compound]",concentration at 24 h,"[1]; brain, 10 mg/kg, 10 mg/kg p.o., Table 4A",49 ± 2.4 nM
same,concentration at 24 h,"[1]; brain, 100 mg/kg, 100 mg/kg p.o., Table 3A",182 ± 13 nM
same,concentration at 24 h,"[1]; brain, 100 mg/kg, 100 mg/kg p.o., Table 4A",287 ± 74 nM
same,concentration at 24 h,"[1]; plasma, 10 mg/kg, 10 mg/kg p.o., Table 4C",67 ± 10 nM
same,concentration at 24 h,"[1]; plasma, 100 mg/kg, 100 mg/kg p.o., Table 3C",330 ± 36 nM
same,concentration at 24 h,"[1]; plasma, 100 mg/kg, 100 mg/kg p.o., Table 4C",852 ± 134 nM
same,concentration at 24 h,"[1]; spleen, 10 mg/kg, 10 mg/kg p.o., Table 4B",150 ± 12 nM
same,concentration at 24 h,"[1]; spleen, 100 mg/kg, 100 mg/kg p.o., Table 3B",711 ± 100 nM
same,concentration at 24 h,"[1]; spleen, 100 mg/kg, 100 mg/kg p.o., Table 4B",1140 ± 220 nM
"OC[C@H]1CNC[C@@H](O)[C@@H]1O [IFG-Tartrate, Isofagomine tartrate, reference compound]",Emax,GCase,93.6 ± 2.5%
